Consider one compound from US20230293428A1, “Drug delivery via contact lenses and similar ophthalmic devices” (Colorado School of Mines, priority 2021, published 2023).

Structures can show the parent of a compound that is named as a salt.

Data set [1] can be described thus: In vitro timolol release from drug-loaded contact lenses into PBS, fitted to Fick's diffusion (perfect sink) model. It counts as physicochemical. Here is the method:
After drug loading, the lenses were removed from the timolol maleate solution and gently wiped with KimWipe to remove the excess solution remaining on the surface. Each lens was then placed in 3 mL of fresh PBS solution for in vitro drug release. The optical absorption spectra of the release media were measured by the same spectrophotometer used in Example 2. The concentration of the timolol in the release medium was determined by fitting the optical absorption spectra in the range of 260 to 340 nm with the calibration spectrum of timolol maleate using MATLAB's minimization of least square error method. The drug release profiles were fitted using a perfect sink model to determine drug diffusivity. By solving the Fick's law diffusion equation, the mass percent of the drug released as a function of time is given by […] To further investigate this effect, the diffusion coefficients of timolol in the lenses were calculated by fitting the release curves to Fick's diffusion equation as described above. […] As Table 5 illustrates, the diffusion coefficients of timolol from these lenses are about a third of the diffusion coefficient from control (blank/unloaded) lenses (circular data points in FIG. 5), which results in extension of release by about 10 hours.

A short description of data set [2]: Partition coefficient of timolol maleate between contact lens and loading solution. Type of data set: physicochemical. Here is the method: Timolol maleate was dissolved in PBS to prepare a 1.5 mg/mL solution. Each hydrated contact lens (both blank and vitamin E-loaded) was placed in 3 mL of this solution for 7 days to load the drug in the lenses.
The partition coefficient K of the drug is defined as the ratio of the concentration of the drug in the lens to the concentration of the drug in the medium when equilibrium is reached during the drug loading process. […] The concentration in the lens after 7 days of loading can be determined by dividing the total mass of the drug in the lens by the volume, and the mass of the drug can be determined from the release data based on the assumption that 100% of the drug is released due to the large volume of release medium compared to the lens volume. Therefore, the partition coefficient K is calculated as
where Clens and Cloading are the concentration of the drug in the lens and the loading solution at equilibrium, respectively, Vrelease and Vlens are the volume of the release medium and the contact lens, respectively, and Crelease is the final concentration of the drug in the release medium.

Setting [3] is: lens with 0 wt % vitamin E (blank), solvent n/a.
[4] abbreviates: lens with 8.4 wt % vitamin E, loaded from pure EtOH.
[5] abbreviates: lens with 8.6 wt % vitamin E, loaded from 75:25 EtOH:H2O.
Setting [6] is: lens with 9.3 wt % vitamin E, loaded from 85:15 EtOH:H2O.
The mark [7] stands for this setting: lens with 19.3 wt % vitamin E, loaded from pure EtOH.
The mark [8] stands for this setting: lens with 19.9 wt % vitamin E, loaded from 85:15 EtOH:H2O.
The mark [9] stands for this setting: lenses with vitamin E loads of 8 to 10 wt %.

Take `CC(C)(C)NC[C@H](O)COc1nsnc1N1CCOCC1` [timolol maleate, Timolol maleate]: the “D, diffusion coefficient of timolol maleate from contact lens” value in data set [1] (setting [3]) is on record as 2.04 · 10^−13 ± 0 m^2/s; in data set [1] (setting [4]) it was “(7.42 ± 1.49) · 10^−14 m^2/s”; in data set [1] (setting [5]) it was “(6.20 ± 0.329) · 10^−14 m^2/s”; in data set [1] (setting [6]), 5.09 · 10^−14 ± 0 m^2/s; in data set [1] (setting [7]), “(1.62 ± 0.219) · 10^−14 m^2/s”; in data set [1] (setting [8]), “(13.2 ± 0.936) · 10^−15 m^2/s”. Moreover, the “diffusion coefficient of timolol relative to control (blank/unloaded) lenses” value in data set [1] (setting [9]) is given as “about a third”. In data set [1] (setting [9]), the “extension of timolol release versus control (blank) lenses” value is “about 10 hours”. In addition, in data set [1] (lenses with vitamin E loads of 8 to 10 wt %, made from different loading solutions), the timolol release time result was “about 12 hours”. In data set [1] (lenses with vitamin E loads of 19 to 20 wt %, two different solutions), the “duration of timolol release” value was “more than 70 hours”. For the same compound, the “duration of release of timolol from the lens” value in data set [1] (vitamin E loads of about 10 wt %) is “about 10 hours”; in data set [1] (vitamin E loads of about 20 wt %), “about 70 hours”. Besides, the “K, partition coefficient of timolol maleate in contact lens” value in data set [2] (setting [3]) was 0.7125 ± 0.0168; in data set [2] (setting [4]) it was 0.6050 ± 0.0171; in data set [2] (setting [5]), 0.6757 ± 0.0152; in data set [2] (setting [6]) it was 0.7969 ± 0.0242; in data set [2] (setting [7]) it was 0.5739 ± 0.0069; in data set [2] (setting [8]), 0.6108 ± 0.0489.
